Earlier results in paper PMC11510164 (Pharmaceuticals, 2024).

tested on: not given; conditions: 25 °C

water solubility [µg/mL] | Structure (SMILES)
10 to 20 | Cc1cccc(Nc2ccccc2C(=O)O)c1C [MFA, Mefenamic acid, reference compound]

same assay, conditions: pure component (ChCl: solid); ref per cell: 90, 123, 125, 126, 127, 129, 137, 139

Density (g/cm^3) | Density [g/mL] | Structure (SMILES)
– | ~1.205 | C[N+](C)(C)CCO [ChCl, Choline chloride]
1.66 [126] g/cm^3 | – | N[C@@H](CS)C(=O)O [Cys, L-Cysteine]
0.89 [126] g/cm^3 | – | CCCCCCCCCC(=O)O [Dec, Decanoic acid (capric acid)]
1.60 [126] g/cm^3 | – | OC[C@H]1OC(O)(CO)[C@@H](O)[C@@H]1O (stereo partly drawn) [Fru, D-(−)-fructose]
1.26 [126] g/cm^3 | – | O=C(O)CO [Gla, Glycolic acid]
1.5620 [126] g/cm^3 | – | OC[C@H]1O[C@H](O)[C@H](O)[C@@H](O)[C@@H]1O [Glu, D-(+)-glucose]
1.26 [129] g/cm^3 | – | OCC(O)CO [Gly, Glycerol]
1.03 [123] g/cm^3 | – | CC(C)Cc1ccc(C(C)C(=O)O)cc1 (stereo not shown) [IBU, Ibuprofen, reference compound]
0.85 [126] g/cm^3 | – | CCCCCCCCCCCCCC(=O)OC(C)C [IPM, Isoporpyl miristate]
1.25 [129] g/cm^3 | – | C[C@H](O)C(=O)O [Lac, L-lactic acid]
0.84 [126] g/cm^3 | – | C=C(C)[C@H]1CC=C(C)CC1 [Lim, (R)-(+)-limonene]
1.20 [125] g/cm^3 | – | Cc1cccc(Nc2ccccc2C(=O)O)c1C [MFA, Mefenamic acid, reference compound]
0.89 [126] g/cm^3 | – | CCCCCCCC/C=C\CCCCCCCC(=O)O [OLA, Oleic acid]
1.90 [126] g/cm^3 | – | O=C(O)C(=O)O [Oxa, Oxalic acid]
1.04 [126] g/cm^3 | – | CC(O)CO (stereo not shown) [PG, Propylene glycol]
1.47 [129] g/cm^3 | – | OC[C@@H](O)[C@@H](O)[C@H](O)[C@@H](O)CO [Sor, D-(−)-sorbitol]
1.50 [137] g/cm^3 | – | OC[C@@H](O)[C@H](O)[C@@H](O)CO [Xyl, Xylitol]

Structure (SMILES) | Density (g/cm^3) | Density [g/mL]
CC1CCC(C(C)C)C(O)C1 (racemic) [MNT, (±)-menthol] | 0.89 [90] g/cm^3 | –
N=C(N)NCCC[C@H](N)C(=O)O [Arg, L-Arginine] | 1.42 [126] g/cm^3 | –

same assay, conditions: sol. 70%

Density [g/mL] | Structure (SMILES)
~1.1 | C[N+](C)(C)CCO [ChCl, Choline chloride]

tested on: rats; conditions: rat, in vivo, po

Structure (SMILES) | LD50 [mg/kg]
CC1CCC(C(C)C)C(O)C1 (racemic) [MNT, (±)-menthol] | 3000
